Measurements from ChEMBL document CHEMBL4219185, “DNA sequence-specific ligands. XVII. Synthesis, spectral properties, virological and biochemical studies of fluorescent dimeric bisbenzimidazoles DBA(n)” (Bioorg Med Chem, 2018).
pIC50: −log10 of the molar value. Activity calls are given as the source filed them. The calls are words filed in the database; no cut-off is given here.

Key:
[1] = Drug uptake in human U251 cell nucleus treated at 10 to 20 uM after 20 to 40 hrs by fluorescent microscopic method; format: ADME, subcellular; settings: u-251, 20 µM
MCF7 = experiment: Cytotoxicity against human MCF7 cells assessed as reduction in cell viability by MTT assay; format: cell-based
HCT-116 = experiment: Cytotoxicity against human HCT116 cells assessed as reduction in cell viability by MTT assay; format: cell-based
MCF-10A = experiment: Cytotoxicity against human MCF10A cells assessed as reduction in cell viability by MTT assay; format: cell-based
[2] = Cytotoxicity against human […] cells assessed as reduction in cell viability by MTT assay; format: cell-based
DNA [3] = experiment: Binding affinity to Escherichia coli supercoiled pHOT1 DNA assessed as inhibition of topoisomerase-1-mediated relaxation of supercoiled DNA at 2.5 to 20 uM after 30 mins by agarose gel electrophoresis method; format: nucleic-acid assay
DNA [4] = experiment: Binding affinity to Escherichia coli supercoiled pHOT1 DNA assessed as inhibition of topoisomerase-1-mediated relaxation of supercoiled DNA at 10 uM after 30 mins by agarose gel electrophoresis method; format: nucleic-acid assay
Human alphaherpesvirus 1 [5] = experiment: Antiviral activity against Herpes simplex virus-1 strain F infected in African green monkey Vero cells assessed as late protein gb level at 50 ug/ml after 48 hrs by immunostaining based luminescent microscopic method (reference value: 95.6%); format: functional
Human alphaherpesvirus 1 [6] = experiment: Antiviral activity against Herpes simplex virus-1 infected in cells; format: functional, organism-based
Cytomegalovirus = experiment: Antiviral activity against CMV infected in cells; format: functional, organism-based
[7] = biological target: Human immunodeficiency virus type 1 integrase (Human immunodeficiency virus 1, UniProt Q7ZJM1); experiment: Inhibition of HIV1 integrase
Calf thymus DNA [8] = experiment: Binding affinity to calf thymus DNA assessed as hypochromic shift at 2.38 x 10^-6M by absorption spectral analysis; format: nucleic-acid assay; settings: Bos taurus
Calf thymus DNA [9] = experiment: Binding affinity to calf thymus DNA assessed as bathochromic shift at 2.38 x 10^-6M by absorption spectral analysis; format: nucleic-acid assay; settings: Bos taurus
Calf thymus DNA [10] = experiment: Binding affinity to calf thymus DNA at 0.95 uM by fluorescence spectral analysis; format: nucleic-acid assay; settings: Bos taurus
Calf thymus DNA [11] = experiment: Binding affinity to calf thymus DNA groove using DNA cholesteric liquid crystal dispersions assessed as positive band appearance at 0.47 to 4.73 uM by CD spectral analysis; format: nucleic-acid assay; settings: Bos taurus
Calf thymus DNA [12] = experiment: Binding affinity to calf thymus DNA assessed as hypochromic shift at 4.4 x 10^-6M by absorption spectral analysis; format: nucleic-acid assay; settings: Bos taurus
Calf thymus DNA [13] = experiment: Binding affinity to calf thymus DNA assessed as bathochromic shift at 4.4 x 10^-6M by absorption spectral analysis; format: nucleic-acid assay; settings: Bos taurus
Calf thymus DNA [14] = experiment: Binding affinity to calf thymus DNA at 1 uM by fluorescence spectral analysis; format: nucleic-acid assay; settings: Bos taurus
Calf thymus DNA [15] = experiment: Binding affinity to calf thymus DNA groove using DNA cholesteric liquid crystal dispersions assessed as positive band appearance at 1.1 to 5.45 uM by CD spectral analysis; format: nucleic-acid assay; settings: Bos taurus

Chain of Human immunodeficiency virus type 1 integrase (Q7ZJM1 whole entry): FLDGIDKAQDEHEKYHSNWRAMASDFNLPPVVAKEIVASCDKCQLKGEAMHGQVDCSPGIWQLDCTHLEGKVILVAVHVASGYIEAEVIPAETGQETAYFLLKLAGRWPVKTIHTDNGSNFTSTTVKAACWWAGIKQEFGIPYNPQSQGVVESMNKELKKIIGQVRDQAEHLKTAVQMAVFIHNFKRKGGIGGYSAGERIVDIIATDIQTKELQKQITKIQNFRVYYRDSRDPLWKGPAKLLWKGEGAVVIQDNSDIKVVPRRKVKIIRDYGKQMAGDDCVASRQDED

Compound	pIC50 (MCF7)	pIC50 (HCT-116)	pIC50 (MCF-10A)	pIC50 [2]	inhibition (DNA [3])	further results
CN(C)CCCNC(=O)c1ccc2nc(-c3ccc4nc(CNC(=O)CCCC(=O)NCc5nc6ccc(-c7nc8ccc(C(=O)NCCCN(C)C)cc8[nH]7)cc6[nH]5)[nH]c4c3)[nH]c2c1	< 3.62	< 3.62	< 3.62	< 3.62	Active	Drug uptake [1]: Active
CN1CCN(c2ccc3nc(-c4ccc5nc(CNC(=O)CCCCCCCCCCCCC(=O)NCc6nc7ccc(-c8nc9ccc(N%10CCN(C)CC%10)cc9[nH]8)cc7[nH]6)[nH]c5c4)[nH]c3c2)CC1	4.05 to 4.70	4.05 to 4.70	4.05 to 4.70	4.05 to 4.70	–	–
CN1CCN(c2ccc3nc(-c4ccc5nc(CNC(=O)CCCC(=O)NCc6nc7ccc(-c8nc9ccc(N%10CCN(C)CC%10)cc9[nH]8)cc7[nH]6)[nH]c5c4)[nH]c3c2)CC1	4.05 to 4.70	4.05 to 4.70	4.05 to 4.70	4.05 to 4.70	–	inhibition (DNA [4]): Active
CN1CCN(c2ccc3nc(-c4ccc5nc(CNC(=O)CCCCCCCCCCC(=O)NCc6nc7ccc(-c8nc9ccc(N%10CCN(C)CC%10)cc9[nH]8)cc7[nH]6)[nH]c5c4)[nH]c3c2)CC1	4.05 to 4.70	4.05 to 4.70	4.05 to 4.70	4.05 to 4.70	–	–
CN1CCN(c2ccc3nc(-c4ccc5nc(CNC(=O)CCCCCC(=O)NCc6nc7ccc(-c8nc9ccc(N%10CCN(C)CC%10)cc9[nH]8)cc7[nH]6)[nH]c5c4)[nH]c3c2)CC1	4.05 to 4.70	4.05 to 4.70	4.05 to 4.70	4.05 to 4.70	Active	–
CN1CCN(c2ccc3nc(-c4ccc5nc(CNC(=O)CCCCCCCC(=O)NCc6nc7ccc(-c8nc9ccc(N%10CCN(C)CC%10)cc9[nH]8)cc7[nH]6)[nH]c5c4)[nH]c3c2)CC1	4.05 to 4.70	4.05 to 4.70	4.05 to 4.70	4.05 to 4.70	Active	–
CN(C)CCCNC(=O)c1ccc2nc(-c3ccc4nc(CNC(=O)CCCCCCCCCC(=O)NCc5nc6ccc(-c7nc8ccc(C(=O)NCCCN(C)C)cc8[nH]7)cc6[nH]5)[nH]c4c3)[nH]c2c1	< 3.62	< 3.62	< 3.62	< 3.62	Active	Drug uptake [1]: Active
CN1CCN(c2ccc3nc(-c4ccc5nc(CNC(=O)CCCCCCC(=O)NCc6nc7ccc(-c8nc9ccc(N%10CCN(C)CC%10)cc9[nH]8)cc7[nH]6)[nH]c5c4)[nH]c3c2)CC1	4.05 to 4.70	4.05 to 4.70	4.05 to 4.70	4.05 to 4.70	–	–
CN1CCN(c2ccc3nc(-c4ccc5nc(CNC(=O)CC(=O)NCc6nc7ccc(-c8nc9ccc(N%10CCN(C)CC%10)cc9[nH]8)cc7[nH]6)[nH]c5c4)[nH]c3c2)CC1	4.05 to 4.70	4.05 to 4.70	4.05 to 4.70	4.05 to 4.70	Active	–
Nc1nc2c(ncn2COCCO)c(=O)[nH]1 [ACYCLOVIR]	–	–	–	–	–	Activity (Human alphaherpesvirus 1 [5]): 0.1%
CN1CCN(c2ccc3nc(-c4ccc5nc(CNC(=O)CCCCCCCCCC(=O)NCc6nc7ccc(-c8nc9ccc(N%10CCN(C)CC%10)cc9[nH]8)cc7[nH]6)[nH]c5c4)[nH]c3c2)CC1	4.05 to 4.70	4.05 to 4.70	4.05 to 4.70	4.05 to 4.70	–	–
CN(C)CCCNC(=O)c1ccc2nc(-c3ccc4nc(CNC(=O)CCCCCCCCCCCC(=O)NCc5nc6ccc(-c7nc8ccc(C(=O)NCCCN(C)C)cc8[nH]7)cc6[nH]5)[nH]c4c3)[nH]c2c1	< 3.62	< 3.62	< 3.62	< 3.62	Active	Drug uptake [1]: Active; Activity (Human alphaherpesvirus 1 [6]): Active; Activity (Cytomegalovirus): Active; pIC50 [7]: 7.22
CN1CCN(c2ccc3nc(-c4ccc5nc(CNC(=O)CCC(=O)NCc6nc7ccc(-c8nc9ccc(N%10CCN(C)CC%10)cc9[nH]8)cc7[nH]6)[nH]c5c4)[nH]c3c2)CC1	4.05 to 4.70	4.05 to 4.70	4.05 to 4.70	4.05 to 4.70	–	–
CN(C)CCCNC(=O)c1ccc2nc(-c3ccc4nc(CNC(=O)CCCCCCCC(=O)NCc5nc6ccc(-c7nc8ccc(C(=O)NCCCN(C)C)cc8[nH]7)cc6[nH]5)[nH]c4c3)[nH]c2c1	< 3.62	< 3.62	< 3.62	< 3.62	Active	Drug uptake [1]: Active; Activity (Calf thymus DNA [8]): Active; Activity (Calf thymus DNA [9]): Active; Activity (Calf thymus DNA [10]): Active; Activity (Calf thymus DNA [11]): Active; Activity (Human alphaherpesvirus 1 [6]): Active; Activity (Human alphaherpesvirus 1 [5]): 10%
CN1CCN(c2ccc3nc(-c4ccc5nc(CNC(=O)CCCCC(=O)NCc6nc7ccc(-c8nc9ccc(N%10CCN(C)CC%10)cc9[nH]8)cc7[nH]6)[nH]c5c4)[nH]c3c2)CC1	4.05 to 4.70	4.05 to 4.70	4.05 to 4.70	4.05 to 4.70	–	–
CN(C)CCCNC(=O)c1ccc2nc(-c3ccc4nc(CNC(=O)CCCCCC(=O)NCc5nc6ccc(-c7nc8ccc(C(=O)NCCCN(C)C)cc8[nH]7)cc6[nH]5)[nH]c4c3)[nH]c2c1	< 3.62	< 3.62	< 3.62	< 3.62	Active	Drug uptake [1]: Active; Activity (Calf thymus DNA [12]): Active; Activity (Calf thymus DNA [13]): Active; Activity (Calf thymus DNA [14]): Active; Activity (Calf thymus DNA [15]): Active
CN1CCN(c2ccc3nc(-c4ccc5nc(CNC(=O)CCCCCCCCCCCC(=O)NCc6nc7ccc(-c8nc9ccc(N%10CCN(C)CC%10)cc9[nH]8)cc7[nH]6)[nH]c5c4)[nH]c3c2)CC1	4.05 to 4.70	4.05 to 4.70	4.05 to 4.70	4.05 to 4.70	–	–
CN(C)CCCNC(=O)c1ccc2nc(-c3ccc4nc(CNC(=O)CC(=O)NCc5nc6ccc(-c7nc8ccc(C(=O)NCCCN(C)C)cc8[nH]7)cc6[nH]5)[nH]c4c3)[nH]c2c1	< 3.62	< 3.62	< 3.62	< 3.62	Active	Activity (Human alphaherpesvirus 1 [6]): Active
CN1CCN(c2ccc3nc(-c4ccc5nc(CNC(=O)CCCCCCCCC(=O)NCc6nc7ccc(-c8nc9ccc(N%10CCN(C)CC%10)cc9[nH]8)cc7[nH]6)[nH]c5c4)[nH]c3c2)CC1	4.05 to 4.70	4.05 to 4.70	4.05 to 4.70	4.05 to 4.70	–	–
